{"source": "patent US9119796B2", "about": "“Razor comprising a molded shaving aid composition comprising a pyrithione source” (The Gillette Company, priority 2011, dated 2015)", "origin": "cited, not measured here", "system": "microbials", "settings": "soap bar composition with platelet ZPT compared with particulate ZPT (median about 0.70 microns, mean about 0.75 microns, thickness less than 0.6 microns); FIG. 1 of U.S. Ser. No. 13/036,889", "data": [{"smiles": "[O-]n1ccccc1=S.[O-]n1ccccc1=S.[Zn+2]", "note": "[platelet ZPT, zinc salt of 1-hydroxy-2-pyridinethione]", "values": [{"measurement": "number of colony forming units (CFUs) that form on a substrate", "value": "reduces the number of colony forming units (CFUs)"}]}]}
